biological target: T1, Tyrosinase (Agaricus bisporus, UniProt O42713)
T1 sequence (O42713 whole entry): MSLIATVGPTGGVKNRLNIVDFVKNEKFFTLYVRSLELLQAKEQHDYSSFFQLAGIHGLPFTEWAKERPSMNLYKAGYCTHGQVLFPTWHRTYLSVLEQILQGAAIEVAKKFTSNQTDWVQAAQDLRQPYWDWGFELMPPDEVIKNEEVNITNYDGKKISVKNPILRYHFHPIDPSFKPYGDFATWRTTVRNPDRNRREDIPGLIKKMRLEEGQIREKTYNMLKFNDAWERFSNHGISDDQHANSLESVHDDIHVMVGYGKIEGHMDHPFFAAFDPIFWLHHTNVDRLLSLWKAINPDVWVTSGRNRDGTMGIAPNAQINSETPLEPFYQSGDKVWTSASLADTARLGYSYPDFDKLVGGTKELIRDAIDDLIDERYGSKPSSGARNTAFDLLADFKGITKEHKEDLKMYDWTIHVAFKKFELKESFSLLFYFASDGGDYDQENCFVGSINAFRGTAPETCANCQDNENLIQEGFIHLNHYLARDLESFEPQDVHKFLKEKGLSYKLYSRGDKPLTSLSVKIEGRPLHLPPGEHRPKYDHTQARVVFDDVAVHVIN
Description: Inhibition of mushroom tyrosinase

Compared with `Oc1ccc(-c2ccc3cc(O)ccc3c2)c(O)c1`, `Oc1cccc(-c2ccc3cc(O)ccc3c2)c1` is 190-fold higher in IC50: 0.034 µM for the first, 6.4 µM for the second.

Compared with `Oc1ccc2cc(-c3cc(O)c(O)c(O)c3)ccc2c1`, `Oc1cc(O)cc(-c2ccc3cc(O)ccc3c2)c1` is 5.6-fold higher in IC50: 2.95 µM for the first, 16.5 µM for the second.

Going from `Oc1ccc(O)cc1` [HYDROQUINONE] to `Oc1ccc(/C=C/c2cc(O)cc(O)c2)cc1` [RESVERATROL], the IC50 rises from 33.5 µM to 55.6 µM (1.7-fold).

Work on `Oc1cc(O)cc(-c2ccc3cc(O)cc(O)c3c2)c1` yielded an IC50 of 0.49 µM.
